Read-outs that look alike come from different tables or passages of the source.

In one assay the test system is RKO. Description: cells. Type of assay: cell-based.
The subject of a further assay is SW480. Put plainly: cells. Type of assay: cell-based.
Assay [1] concerns HCT116 cells treated with a GSK3β inhibitor. Description: cells. Type of assay: cell-based. To be noted: for GSK3b inh pretreated_Viability ATP HCT116 IC50/EC50: assay number 26, GSK3b inhibitor pretreated.
In another assay the test system is HCT116. Put plainly: cells. The class given is cell-based.
In the next assay the test system is DLD-1. Description: cells. Type of assay: cell-based.
The next assay relates to Colo320. Put plainly: cells. The class given is cell-based.
A further assay relates to SNU-C1. Put plainly: cells. The class given is cell-based.
For a further assay, the system named is HT-29. Put plainly: cells. Type of assay: cell-based.
The next assay relates to HeLa cells. Description: cells. The class given is cell-based.
The subject of assay [2] is endothelial tube formation in co-cultures of ECFCs and ADSCs treated with VEGF. Put plainly: cells. The class given is cell-based, human.
For assay [3], the system named is ECFC/ADSC co-culture cell nuclei number.

Take `Nc1ccc(C(=O)Nc2ccccc2N)cc1` [NCGC00160373-02]: the “IC50/EC50, Basal_Viability ATP RKO (assay number 29)” value with RKO (basal) was over 20 µM. The “IC50/EC50, Basal_Viability ATP SW480 (assay number 24)” value with SW480 (basal) is over 20 µM. The “IC50/EC50, GSK3b inh pretreated_Viability ATP HCT116 (assay number 26)” value in [1] (GSK3b inh pretreated) was 12.8536 µM. Besides, the “IC50/EC50, Basal_Viability ATP HCT116 (assay number 25)” value in the assay with HCT116 (basal) is listed as over 6.6667 µM. Further, the “IC50/EC50, Basal_Viability ATP DLD-1 (assay number 23)” value with DLD-1 (basal) is recorded as over 20 µM. Also, the “IC50/EC50, Basal_Viability ATP Colo 320 (assay number 27)” value in the assay with Colo320 (basal) is over 20 µM. Besides, the “IC50/EC50, Basal_Viability ATP SNU-C1 (assay number 30)” value in the assay on SNU-C1 (basal) is over 20 µM. In addition, the “IC50/EC50, Basal_Viability ATP HT-29 (assay number 28)” value with HT-29 (basal) was over 20 µM.
For the compound `COc1ccc(CN2CCN(C(c3ccc(F)cc3)c3ccc(F)cc3)CC2)c(OC)c1OC.Cl.Cl` [NCGC00164543-02], in the assay on RKO (assay number 29), the “Basal_Viability ATP RKO IC50/EC50” value was found to be 3.6952 µM. Also, the “Basal_Viability ATP SW480 IC50/EC50” value in the assay with SW480 (assay number 24) is 3.3247 µM. Moreover, the “GSK3b inh pretreated_Viability ATP HCT116 IC50/EC50” value in [1] was determined as 2.7677 µM. Also, the “Basal_Viability ATP HCT116 IC50/EC50” value in the assay on HCT116 (assay number 25, basal) is 1.7018 µM. The “Basal_Viability ATP DLD-1 IC50/EC50” value with DLD-1 (assay number 23) is 3.1331 µM. The “Basal_Viability ATP Colo 320 IC50/EC50” value in the assay on Colo320 (assay number 27) is reported as 2.817 µM. In the assay with SNU-C1 (assay number 30), the “Basal_Viability ATP SNU-C1 IC50/EC50” value stood at 0.4428 µM. The “Basal_Viability ATP HT-29 IC50/EC50” value in the assay on HT-29 (assay number 28) stood at 2.926 µM.
Consider `Nc1nc(Cl)nc2c1ncn2[C@@H]1O[C@H](CO)[C@@H](O)[C@@H]1F` [NCGC00164553-02], for which, in the assay with RKO (assay number 29, basal), the “Basal_Viability ATP RKO IC50/EC50” value amounted to 0.001 µM. For the same compound, the “GSK3b inh pretreated_Viability ATP HCT116 IC50/EC50” value in assay [1] was determined as 0.001 µM. For the same compound, the “Hela CellCycMod PI 2N IC50/EC50” value with HeLa cells (assay number 14, 2N) is over 10 µM. In addition, the “Hela CellCycMod PI S Phase IC50/EC50” value in the assay with HeLa cells (assay number 15, S phase) is given as over 10 µM. Further, the “Hela CellCycMod PI 4N IC50/EC50” value in the assay with HeLa cells (assay number 16, 4N) was over 10 µM. In the assay with HeLa cells (assay number 17, MI), the “Hela CellCycMod PI MI IC50/EC50” value is reported as over 10 µM. Moreover, in the assay with HeLa cells (assay number 18, cell number), the “Hela CellCycMod PI Cell Number IC50/EC50” value is 0.00516 µM. Besides, in the assay on HCT116 (assay number 25, basal), the “Basal_Viability ATP HCT116 IC50/EC50” value worked out at 0.001 µM. Besides, the “Basal_Viability ATP DLD-1 IC50/EC50” value with DLD-1 (assay number 23, basal) was found to be 0.1636 µM. Also, the “Basal_Viability ATP Colo 320 IC50/EC50” value with Colo320 (assay number 27, basal) is listed as over 20 µM. Further, the “Basal_Viability ATP SNU-C1 IC50/EC50” value in the assay with SNU-C1 (assay number 30, basal) is over 20 µM. In the assay on HT-29 (assay number 28, basal), the “Basal_Viability ATP HT-29 IC50/EC50” value is over 20 µM.
`C/C(=C(/OCCOc1ccc(Cl)cc1)c1ccc(Cl)cc1Cl)n1ccnc1` [NCGC00249921-01]: the “Basal_Viability ATP RKO IC50/EC50” value in the assay with RKO is given as over 6.6667 µM. In addition, in the assay with SW480, the “Basal_Viability ATP SW480 IC50/EC50” value was 8.4611 µM. For the same compound, in the assay on HCT116, the “Basal_Viability ATP HCT116 IC50/EC50” value is recorded as over 6.6667 µM. For the same compound, the “Basal_Viability ATP DLD-1 IC50/EC50” value in the assay on DLD-1 is 4.1804 µM. For the same compound, the “Basal_Viability ATP Colo 320 IC50/EC50” value with Colo320 is given as 5.8551 µM. The “Basal_Viability ATP SNU-C1 IC50/EC50” value with SNU-C1 is 2.3457 µM. Also, the “VEGF_ADSC\ECFC Angio CD31 TubeArea IC50/EC50” value in [2] is given as 5.8398 µM. Moreover, the “Basal_Viability ATP HT-29 IC50/EC50” value in the assay on HT-29 is over 6.667 µM. For the same compound, in [3], the “VEGF_ADSC\ECFC Angio Hoechst NucArea IC50/EC50” value worked out at 9.416 µM.
For the compound `O=C(O)C1(C(=O)O)CCC1.[NH2-].[NH2-].[Pt+2]` [NCGC00263858-02], in the assay on RKO (assay number 29, basal), the “Basal_Viability ATP RKO IC50/EC50” value is over 20 µM. Besides, the “Basal_Viability ATP SW480 IC50/EC50” value with SW480 (assay number 24, basal) is on record as over 20 µM. In addition, in the assay with HCT116 (assay number 25, basal), the “Basal_Viability ATP HCT116 IC50/EC50” value is on record as over 20 µM. In addition, in the assay with DLD-1 (assay number 23, basal), the “Basal_Viability ATP DLD-1 IC50/EC50” value was over 20 µM. Moreover, the “Basal_Viability ATP Colo 320 IC50/EC50” value with Colo320 (assay number 27, basal) is over 20 µM. In addition, the “Basal_Viability ATP SNU-C1 IC50/EC50” value in the assay on SNU-C1 (assay number 30, basal) is recorded as over 20 µM. The “VEGF_ADSC\ECFC Angio CD31 TubeArea IC50/EC50” value in assay [2] is reported as over 10 µM. Further, the “Basal_Viability ATP HT-29 IC50/EC50” value with HT-29 (assay number 28, basal) is over 20 µM. For the same compound, in assay [3], the “VEGF_ADSC\ECFC Angio Hoechst NucArea IC50/EC50” value is listed as over 10 µM.
As for `C=Cc1c(C)c2cc3nc(cc4[nH]c(cc5nc(cc1[nH]2)C(C)=C5CCC(=O)O)c(CCC(=O)OC)c4C)[C@@]1(C)C3=CC=C(C(=O)OC)[C@@H]1C(=O)OC` [NCGC00344558-01], the “Basal_Viability ATP RKO IC50/EC50” value in the assay on RKO (assay number 29, basal) came to 3.5296 µM. For the same compound, in the assay with SW480 (assay number 24, basal), the “Basal_Viability ATP SW480 IC50/EC50” value is on record as over 6.667 µM. In assay [1], the “GSK3b inh pretreated_Viability ATP HCT116 IC50/EC50” value turned out to be 4.2601 µM. In addition, in the assay on HCT116 (assay number 25, basal), the “Basal_Viability ATP HCT116 IC50/EC50” value came out at 5.6514 µM. Further, the “Basal_Viability ATP Colo 320 IC50/EC50” value in the assay with Colo320 (assay number 27, basal) is 9.6205 µM. Further, in the assay with SNU-C1 (assay number 30, basal), the “Basal_Viability ATP SNU-C1 IC50/EC50” value was found to be 5.854 µM. Further, in the assay on HT-29 (assay number 28, basal), the “Basal_Viability ATP HT-29 IC50/EC50” value was 3.9401 µM.

The record behind these values is paper PMC4503722, “Novel Phenotypic Outcomes Identified for a Public Collection of Approved Drugs from a Publicly Accessible Panel of Assays” (PLoS ONE, 2015).
